Data on four substances can be found in patent US20230123148A1, “TARGETING QUORUM-SENSING PEPTIDES FOR DIAGNOSIS, TREATMENT AND/OR PREVENTION OF COLORECTAL CANCER METASTASIS” (UNIVERSITEIT GENT, priority 2020, published 2023).

The target in assay [1] is T1, CXCR4 receptor (Homo sapiens, UniProt P61073).
T1 construct: endogenous in cells; host or cells: luciferase transfected HCT-8/E11 cells
The assay can be described thus: Antagonism of the E-cadherin reducing effect of QSP76 (Western blot, HCT-8 cells). Type of assay: cell-based. The settings on record: for relative E-cadherin expression: PBS = 100%. As to the method: Western Blot analyses. 1×10^6 luciferase transfected HCT-8/E11 cells were seeded in each well of a 6-well plate. […] After 24 hours, cells were detached from the surface and lysed with Thermo Scientific RIPA-buffer. The protein concentration was then determined using the modified Lowry protein assay kit, according to the manufacturer's instructions. All samples were diluted to the same concentration (i.e. 4 μg/μL) using water and diluted 1:1 using 2× Laemmli buffer. Next, the samples were boiled for 5 min at 95° C. for denaturation, after which centrifugation for 5 min at 16,000 g was performed; the supernatant was then used for Western blot analyses. Therefore, proteins (20 μg) were separated using a Bio-Rad Any kD gel (SDS-PAGE) and transferred to a PVDF membrane. Before the membranes were incubated with antibodies, non-specific binding sites were blocked using 5% skimmed milk solution (1 hour). Western blot was performed using an anti-E-cadherin (1/1000) antibody and incubated overnight at 4° C. Signal intensity was normalized against the total protein content in the lanes. Anti-rabbit-HRP antibody was used for detection (1/2000) (1 hour). Finally, the substrate (5 min) was added and the results were analyzed using the Bio-Rad ChemiDoc EZ imager and Image Lab software. TBS buffer with 0.05% Tween 20 was used for washing between the different steps.

The test system of assay [2] is HCT-8 CRC cells. The settings on record: cited from earlier work.
The subject of assay [3] is luciferase transfected HCT-8/E11 cells. Briefly: Orthotopic colorectal cancer mouse model. Type of assay: in vivo, female athymic nude mice (Swiss nu/nu). As to the method: Orthotopic colorectal cancer mouse model. All in vivo experiments were performed according to the Ethical Committee principles of laboratory animal welfare and approved by our institute (Ghent University, Faculty of Medicine and Health Sciences, approval number ECD 17-90). Mice were maintained in a sterile environment with light, humidity and temperature control (light-dark cycle with light from 7:00 h to 17:00 h, temperature 21-25° C. and humidity 45-65%). Before the experiment, mice were allowed to acclimatize for a minimum of seven days.
Six-weeks old female athymic nude mice (Swiss nu/nu) were anesthetized and a small midline laparotomy executed to localize the caecum. The caecum was then gently exteriorized and luciferase transfected HCT-8/E11 cells (1×10^6 cells) in a volume of 20 μL serum-free DMEM medium with matrigel (1:1) injected into the caecal wall. Cells were previously treated with EntF* (10 nM, 100 nM or 1 μM), Phr0662 (100 nM) or with the vehicle (PBS) or positive control (Transforming Growth Factor α (TGFα), 0.1 μg mL^−1) solution for 5 days before they were implanted in the mice. The caecum was then carefully returned to the abdominal cavity and the laparotomy closed in two layers by sutures of PDS 6/0. Starting from the day after tumour cell injection, mice were daily treated by i.p. injection with vehicle (PBS, n=15), EntF* (10 nmol kg^−1, n=12; 100 nmol kg^−1, n=18; 1 μmol kg^−1, n=8), Phr0662 (100 nmol kg^−1, n=5) or positive control (Epidermal Growth Factor (EGF), 100 μg kg^−1, n=18) for 6 weeks. Once a week, mice were investigated for tumour growth and metastases using bioluminescent imaging with the IVIS Lumina II (Perkin Elmer, Belgium) after i.p. injection with 200 μL luciferin (150 mg kg^−1). After 6 weeks, mice were euthanized using cervical dislocation, followed by macroscopic evaluation of the liver, diaphragm, lungs, caecum, duodenum and peritoneum for the presence of tumour nodules. Liver and lung tissues were then fixed in formalin during 24 h and stored in 70% ethanol for max. 3 days before embedding in paraffin. Afterwards, a haematoxylin & eosin (H&E) staining was performed on 8 μm sections and 3 sections were visualized per mouse using microscopy. The slides of all tumour-bearing mice were scored by two blinded, independent investigators using a scoring system. In the case of a difference in scoring, the slide was scored again by a third blinded, independent investigator for consensus.
Statistical analyses. The Kolmogorov-Smirnov test was used to assess if data obtained were normally distributed. For sample sizes of n<10, non-parametric tests (Mann-Whitney U test) were performed directly. Slope comparison was based on linear regression analysis. Bootstrapped medians and Hedges G-values were used to calculate the effect size.

Where [4] appears, read: after 6 weeks daily i.p. treatment.

T1 sequence (P61073 whole entry): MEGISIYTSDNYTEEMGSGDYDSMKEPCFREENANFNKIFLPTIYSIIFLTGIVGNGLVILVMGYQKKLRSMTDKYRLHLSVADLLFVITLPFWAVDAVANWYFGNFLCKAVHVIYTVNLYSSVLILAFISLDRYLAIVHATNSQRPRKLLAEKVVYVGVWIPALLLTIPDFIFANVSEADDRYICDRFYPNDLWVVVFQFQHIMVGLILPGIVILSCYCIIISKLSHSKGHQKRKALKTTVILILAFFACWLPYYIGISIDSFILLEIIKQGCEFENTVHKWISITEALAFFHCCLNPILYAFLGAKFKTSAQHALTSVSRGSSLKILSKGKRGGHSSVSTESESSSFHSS

Consider “ANLVECVFSLFKKCN (QSP76S1A) [EntF* antagonist]”, for which, in assay [1] (HCT-8 cells), the “antagonistic effect on the in vitro pro-metastatic (E-cadherin reducing) effect of QSP76” value was “reduces”. For the same substance, the “relative E-cadherin expression” value in assay [1] (mixture of antagonist with 5 μM EntF* (QSP76), HCT-8 cells) came to 91.8%. In assay [1] (mixture with QSP76 versus QSP76 alone), the “Cohen's d effect size of normalisation in E-cadherin expression” value came out at 0.77.
As for ERNNT [Phr0662], the “promotion of angiogenesis and/or tumour cell invasion in vitro” value in assay [2] was “promote in vitro cell invasion”. Also, in assay [3] (daily i.p. for 6 weeks), the “in vivo metastasis-promoting effect” value is on record as “no in vivo metastasis-promoting effects”.
Turning to Epidermal Growth Factor [EGF], in assay [3] (setting [4]), the “bioluminescence, Bootstrapped median difference (effect size, increase vs PBS)” value was 316%; the “bioluminescence, Hedges' g value (vs PBS)” value was 0.7; the “bioluminescence, Median” value worked out at 630. Also, in assay [3] (after 6 weeks treatment), the “increase in the number of nodules on the caecum compared to PBS” value was 4.5 fold; the “number of nodules on the caecum, Hedges' g value (vs PBS)” value is recorded as 0.8; the “number of nodules on the caecum, Median” value was determined as 14. Further, the “number of nodules on the caecum, Bootstrapped median difference” value in assay [3] (after 6 weeks treatment, vs PBS) came out at 9. Further, the “tumour growth (luciferase activity, bioluminescent imaging) compared to vehicle” value in assay [3] (weekly imaging during 6 weeks, linear regression slope comparison) is on record as “significant increase of tumour growth”.
“SNLVECVFSLFKKCN (SNLVECVFSLKKCN; EntF metabolite) [EntF*]”: the “relative E-cadherin expression” value in assay [1] (QSP76 alone, HCT-8 cells) is listed as 66.0%.
